Results as given in patent US10899787B2, “Cytarabine prodrug nucleoside cyclic phosphate compound based on liverspecific delivery and use” (ZHEJIANG PALO ALTO PHARMACEUTICALS, INC., priority 2017, dated 2021).

target: T1, Recombinant human CYP3A4 enzyme (Homo sapiens, UniProt P08684); assay: Evaluation of recombinant human CYP3A4 metabolism in vitro; type: in vitro ADME; details: recombinant human CYP3A4 enzyme in vitro; ratio to PA4102 (Table 4)
T1 construct: purchased BD company lot number 3100772
Procedure: Example 12 Evaluation of Recombinant Human CYP3A4 Metabolism In Vitro
Recombinant human CYP3A4 enzyme was purchased from BD company, lot number 3100772.
Test compounds PA4101, PA4102, PA4103, PA4104, PA4105, PA4106, PA4107, PA4108, PA4109, PA4110 and PA4111 were synthesized by Zhejiang Palo Alto Pharmaceuticals, Inc., and dissolved in methanol (from Sinopharm Chemical Reagent Co., Ltd.) to prepare a storage solution of a concentration of 100 μM.
Enzymatic reaction was carried out in 100 mM KH2PO4 buffer solution (pH 7.4), the concentration of the test compounds was 100 nM, the concentration of human liver microsomes was 0.1 nmol/ml, and NADPH concentration was 2 mM. The reaction was initiated by NADPH finally added, and after reaction for 1, 5, 10, 20, 30 min in a constant-temperature shaking water bath kettle, samples were taken, and 1.5 times of volume of methanol was immediately added to terminate the reaction.
3) Sample Processing and Analysis Method
The centrifugation was carried out for 20 minutes at a maximum speed of 13,600 rpm using an Eppendorf tabletop centrifuge. Supernatant was taken, and after being blow-dried by a nitrogen blower, the supernatant was re-dissolved into a mobile phase A (0.1% formic acid v/v aqueous solution).
Analytical column: Waters, Acquity UPLC HSS T3 column • Flow rate: 0.5 ml/min • Column temperature: 45° C.
III Mass Spectrometry Condition
An ion source was an electrospray ionization source (Turbo Ionspray); a positive ion mode; a capillary voltage was 3.0 kV; a temperature was 500° C.; a desolventizing airflow was 1000 L/h; and scan time, cone voltage, collision energy and ion response for quantitative analysis are shown in the following table (Table 3): […]

T1 sequence (P08684 whole entry): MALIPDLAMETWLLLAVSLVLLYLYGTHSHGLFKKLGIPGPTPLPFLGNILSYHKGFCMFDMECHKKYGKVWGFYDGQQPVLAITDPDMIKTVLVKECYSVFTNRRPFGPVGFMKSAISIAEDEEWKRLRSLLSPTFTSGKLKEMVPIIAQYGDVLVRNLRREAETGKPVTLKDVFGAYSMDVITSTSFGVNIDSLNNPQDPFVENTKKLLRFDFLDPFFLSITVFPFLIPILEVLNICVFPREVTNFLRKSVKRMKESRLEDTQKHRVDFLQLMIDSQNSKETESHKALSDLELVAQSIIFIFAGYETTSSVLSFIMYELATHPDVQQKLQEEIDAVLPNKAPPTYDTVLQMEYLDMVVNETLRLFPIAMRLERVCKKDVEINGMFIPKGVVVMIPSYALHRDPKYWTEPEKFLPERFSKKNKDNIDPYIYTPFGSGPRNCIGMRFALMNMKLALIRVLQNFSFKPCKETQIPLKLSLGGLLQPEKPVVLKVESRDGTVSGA

| conversion rate relative to that of PA4102 | Compound |
| --- | --- |
| ~10.7 times | Nc1ccn([C@@H]2O[C@H](COP3(=O)OCC[C@H](c4cc(Cl)ccc4F)O3)[C@@H](O)[C@@H]2O)c(=O)n1 (some centres unmarked) [PA4101] |
| ~7.24 times | Nc1ccn([C@@H]2O[C@H](COP3(=O)OCC[C@H](c4cc(F)ccc4Cl)O3)[C@@H](O)[C@@H]2O)c(=O)n1 (some centres unmarked) [PA4108] |
| about 20.6 times | Nc1ccn([C@@H]2O[C@H](COP3(=O)OCC[C@H](c4cc(Cl)ccc4Cl)O3)[C@@H](O)[C@@H]2O)c(=O)n1 (some centres unmarked) [PA4109] |

same assay, conditions: recombinant human CYP3A4 enzyme; test compound 100 nM; NADPH 2 mM; pH 7.4; samples at 1, 5, 10, 20, 30 min

| Compound | Elimination Rate in vitro [ml/min/gprot] |
| --- | --- |
| Nc1ccn([C@@H]2O[C@H](COP3(=O)OCC[C@H](c4cc(Cl)ccc4F)O3)[C@@H](O)[C@@H]2O)c(=O)n1 (some centres unmarked) [PA4101] | 35.0 |
| Nc1ccn([C@@H]2O[C@H](COP3(=O)OCC[C@H](c4ccncc4)O3)[C@@H](O)[C@@H]2O)c(=O)n1 (some centres unmarked) [PA4102, reference compound] | 3.26 |
| Nc1ccn([C@@H]2O[C@H](COP3(=O)OCC[C@H](c4ccc(F)c(Cl)c4)O3)[C@@H](O)[C@@H]2O)c(=O)n1 (some centres unmarked) [PA4105] | 5.79 |
| Nc1ccn([C@@H]2O[C@H](COP3(=O)OCC[C@H](c4cccc(Cl)c4F)O3)[C@@H](O)[C@@H]2O)c(=O)n1 (some centres unmarked) [PA4107] | 8.28 |
| Nc1ccn([C@@H]2O[C@H](COP3(=O)OCC[C@H](c4cc(F)ccc4Cl)O3)[C@@H](O)[C@@H]2O)c(=O)n1 (some centres unmarked) [PA4108] | 23.6 |

More lines, now with the values ahead:

| Elimination Rate in vitro [ml/min/gprot] | Compound |
| --- | --- |
| 23.1 | Nc1ccn([C@@H]2O[C@H](COP3(=O)OCC[C@H](c4cc(Cl)cc(Cl)c4)O3)[C@@H](O)[C@@H]2O)c(=O)n1 (some centres unmarked) [PA4103] |
| 2.93 | Nc1ccn([C@@H]2O[C@H](COP3(=O)OCC[C@H](c4cc(F)cc(F)c4)O3)[C@@H](O)[C@@H]2O)c(=O)n1 (some centres unmarked) [PA4104] |
| 14.9 | Nc1ccn([C@@H]2O[C@H](COP3(=O)OCC[C@H](c4ccc(Cl)c(F)c4)O3)[C@@H](O)[C@@H]2O)c(=O)n1 (some centres unmarked) [PA4106] |
| 67.3 | Nc1ccn([C@@H]2O[C@H](COP3(=O)OCC[C@H](c4cc(Cl)ccc4Cl)O3)[C@@H](O)[C@@H]2O)c(=O)n1 (some centres unmarked) [PA4109] |
| 8.37 | Nc1ccn([C@@H]2O[C@H](COP3(=O)OCC[C@H](c4cc(F)ccc4F)O3)[C@@H](O)[C@@H]2O)c(=O)n1 (some centres unmarked) [PA4110] |
| 9.55 | Nc1ccn([C@@H]2O[C@H](COP3(=O)OCC[C@H](c4cccc(F)c4F)O3)[C@@H](O)[C@@H]2O)c(=O)n1 (some centres unmarked) [PA4111] |
